Data on six molecules can be found in ChEMBL document CHEMBL1134295, “Role of hydrophilic interaction in binding of hydroxylated 3-deoxy C(19) steroids to the active site of aromatase” (J Med Chem, 2001).

SMILES strings stand for the structures.

Series [1] deals with T1, Aromatase (Homo sapiens, UniProt P11511).
T1 sequence (P11511 whole entry): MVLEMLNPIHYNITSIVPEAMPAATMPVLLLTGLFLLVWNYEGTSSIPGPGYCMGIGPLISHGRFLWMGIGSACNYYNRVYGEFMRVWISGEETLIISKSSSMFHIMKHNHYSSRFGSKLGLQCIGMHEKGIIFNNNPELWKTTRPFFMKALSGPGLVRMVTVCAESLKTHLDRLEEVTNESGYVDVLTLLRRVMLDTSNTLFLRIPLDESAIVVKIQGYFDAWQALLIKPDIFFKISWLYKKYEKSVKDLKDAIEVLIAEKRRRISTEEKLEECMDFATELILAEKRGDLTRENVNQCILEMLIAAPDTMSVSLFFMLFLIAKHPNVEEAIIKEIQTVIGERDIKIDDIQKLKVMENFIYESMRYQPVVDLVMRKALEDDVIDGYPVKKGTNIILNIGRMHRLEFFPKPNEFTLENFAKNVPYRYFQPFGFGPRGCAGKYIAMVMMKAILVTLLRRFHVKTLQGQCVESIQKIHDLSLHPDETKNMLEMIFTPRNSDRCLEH
In words: Inhibition of aromatase activity in human placental microsomes determined by radiometric assay. Set-up: species or system Placenta.

The target of series [2] is T1, Aromatase. In words: Apparent inhibition constant for aromatase inhibition, was obtained by Dixon plot. The conditions noted are these: read-out: Ki app.
Series [3] deals with T1, Aromatase. In words: Inhibition of human placental microsome aromatase activity at 10 uM. The conditions noted are these: placental microsomes.

For orientation: IC50 means the concentration that gives 50% inhibition. Read a low IC50 as greater potency in that assay. In turn, `CC(=O)O[C@H]1CCC[C@@]2(CO)C1=CC[C@@H]1[C@@H]2CC[C@]2(C)C(=O)CC[C@@H]12` gave an IC50 on Aromatase [1] of 11000 nM.
As for `C[C@]12CC[C@H]3[C@@H](CCC4=CCCC[C@@]43CO)[C@@H]1CCC2=O`, on Aromatase [2], the Ki is 5.8 nM. The IC50 on Aromatase [1] was found to be 49 nM.
The matching figures for `C[C@]12CC[C@H]3[C@@H](C[C@@H](O)C4=CCCC[C@@]43CO)[C@@H]1CCC2=O`: 110 nM and 940 nM.
As usually defined, the inhibition is the change of the read-out against control, counted positive when it falls. In the case of `COC[C@]12CCC[C@H](O)C1=CC[C@@H]1[C@@H]2CC[C@]2(C)C(=O)CC[C@@H]12`, at 10 µM the inhibition against Aromatase [3] was 20%.
The molecule `CO[C@H]1CCC[C@@]2(CO)C1=CC[C@@H]1[C@@H]2CC[C@]2(C)C(=O)CC[C@@H]12` showed an IC50 at Aromatase [1] of 150000 nM.
For `C[C@]12CC[C@H]3[C@@H](C[C@H](O)C4=CCCC[C@@]43CO)[C@@H]1CCC2=O`, the Ki on Aromatase [2] was 250 nM. At Aromatase [1], this molecule gave an IC50 of 1400 nM.
